According to the supplement of paper PMC10307832:

Experiments:
Assay in all cases: relative viability (nuclei count vs DMSO), 5 days (fraction); higher = more cells survive
NCI-H2023 = tested on: NCI-H2023
In short: (§1)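 The day after seeding in 1536-well plates, lung cancer cell lines were treated by pin tool with a single drug, or with a fixed anchor-drug dose together with five library-drug doses (not always all listed) in √10 steps. After 5 days, a combined fix-and-stain solution (final 0.05% Triton X-100, 1% formaldehyde, 1 ug/ml Hoechst) was added. Nuclei counted on 4× images gave relative viability as treated counts over vehicle counts, reported as the median of duplicate plates.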

ChaGo-K-1 = tested on: ChaGo-K-1
In short: as §1

NCI-H1944 = tested on: NCI-H1944
In short: as §1

LC-2-ad = tested on: LC-2-ad
In short: as §1

NCI-H23 = tested on: NCI-H23
In short: as §1

HARA = tested on: HARA
In short: as §1

NCI-H1793 = tested on: NCI-H1793
In short: as §1

NCI-H2126 = tested on: NCI-H2126
In short: as §1

NCI-H2228 = tested on: NCI-H2228
In short: as §1

NCI-H1993 = tested on: NCI-H1993
In short: as §1

SK-LU-1 = tested on: SK-LU-1
In short: as §1

HCC-15 = tested on: HCC-15
In short: as §1

COR-L23 = tested on: COR-L23
In short: as §1

HOP-62 = tested on: HOP-62
In short: as §1

NCI-H1395 = tested on: NCI-H1395
In short: as §1

HCC-366 = tested on: HCC-366
In short: as §1

NCI-H2405 = tested on: NCI-H2405
In short: as §1

NCI-H838 = tested on: NCI-H838
In short: as §1

EMC-BAC-2 = tested on: EMC-BAC-2
In short: as §1

ABC-1 = tested on: ABC-1
In short: as §1

HCC-78 = tested on: HCC-78
In short: as §1

NCI-H358 = tested on: NCI-H358
In short: as §1

O=c1cc(N2CCOCC2)oc2c(-c3cccc4c3sc3ccccc34)cccc12 + O=C(c1cc(Cc2n[nH]c(=O)c3ccccc23)ccc1F)N1CCN(C(=O)C2CC2)CC1 [Olaparib] (partner 8 µM) showed a relative viability (NCI-H2023; first compound 0.01 µM) of 0.514, a relative viability (NCI-H2023; first compound 0.03162 µM) of 0.471 and a relative viability (NCI-H2023; first compound 0.1 µM) of 0.491. For the same compound, the relative viability (NCI-H2023; first compound 0.3162 µM) was 0.513, the relative viability (NCI-H2023; first compound 1 µM) was 0.468 and the relative viability (ChaGo-K-1; first compound 0.01 µM) was 0.421. It also gave a relative viability (ChaGo-K-1; first compound 0.03162 µM) of 0.439, a relative viability (ChaGo-K-1; first compound 0.1 µM) of 0.434 and a relative viability (ChaGo-K-1; first compound 0.3162 µM) of 0.447. For the same compound, the relative viability (ChaGo-K-1; first compound 1 µM) was 0.447, the relative viability (NCI-H1944; first compound 0.01 µM) was 0.438 and the relative viability (NCI-H1944; first compound 0.03162 µM) was 0.406. The relative viability (NCI-H1944; first compound 0.1 µM) was 0.4, the relative viability (NCI-H1944; first compound 0.3162 µM) was 0.384 and the relative viability (NCI-H1944; first compound 1 µM) was 0.393. For the same compound, the relative viability (LC-2-ad; first compound 0.01 µM) was 0.707, the relative viability (LC-2-ad; first compound 0.03162 µM) was 0.694 and the relative viability (LC-2-ad; first compound 0.1 µM) was 0.77. For the same compound, the relative viability (LC-2-ad; first compound 0.3162 µM) was 0.764, the relative viability (LC-2-ad; first compound 1 µM) was 0.662 and the relative viability (NCI-H23; first compound 0.01 µM) was 0.399. It also gave a relative viability (NCI-H23; first compound 0.03162 µM) of 0.335, a relative viability (NCI-H23; first compound 0.3162 µM) of 0.344 and a relative viability (NCI-H23; first compound 1 µM) of 0.343. For the same compound, the relative viability (HARA; first compound 0.01 µM) was 0.762, the relative viability (HARA; first compound 0.03162 µM) was 1.01 and the relative viability (HARA; first compound 0.1 µM) was 0.884. It also gave a relative viability (HARA; first compound 0.3162 µM) of 0.972, a relative viability (HARA; first compound 1 µM) of 0.792 and a relative viability (NCI-H1793; first compound 0.01 µM) of 0.77. The relative viability (NCI-H1793; first compound 0.03162 µM) was 0.857, the relative viability (NCI-H1793; first compound 0.1 µM) was 0.928 and the relative viability (NCI-H1793; first compound 0.3162 µM) was 0.657. For the same compound, the relative viability (NCI-H1793; first compound 1 µM) was 0.738, the relative viability (NCI-H2126; first compound 0.01 µM) was 0.887 and the relative viability (NCI-H2126; first compound 0.03162 µM) was 0.91. For the same compound, the relative viability (NCI-H2126; first compound 0.1 µM) was 0.938, the relative viability (NCI-H2126; first compound 0.3162 µM) was 0.899 and the relative viability (NCI-H2126; first compound 1 µM) was 0.918. The relative viability (NCI-H2228; first compound 0.01 µM) was 0.646, the relative viability (NCI-H2228; first compound 0.03162 µM) was 0.654 and the relative viability (NCI-H2228; first compound 0.1 µM) was 0.891. For the same compound, the relative viability (NCI-H2228; first compound 0.3162 µM) was 0.803, the relative viability (NCI-H2228; first compound 1 µM) was 0.571 and the relative viability (NCI-H1993; first compound 0.01 µM) was 1.08. It also gave a relative viability (NCI-H1993; first compound 0.03162 µM) of 0.958, a relative viability (NCI-H1993; first compound 0.1 µM) of 1.23 and a relative viability (NCI-H1993; first compound 0.3162 µM) of 1.04. It also gave a relative viability (NCI-H1993; first compound 1 µM) of 0.984, a relative viability (SK-LU-1; first compound 0.01 µM) of 0.434 and a relative viability (SK-LU-1; first compound 0.03162 µM) of 0.447. For the same compound, the relative viability (SK-LU-1; first compound 0.1 µM) was 0.387, the relative viability (SK-LU-1; first compound 0.3162 µM) was 0.52 and the relative viability (SK-LU-1; first compound 1 µM) was 0.51. It also gave a relative viability (HCC-15; first compound 0.01 µM) of 0.692, a relative viability (HCC-15; first compound 0.03162 µM) of 0.742 and a relative viability (HCC-15; first compound 0.1 µM) of 0.775. For the same compound, the relative viability (HCC-15; first compound 0.3162 µM) was 0.74, the relative viability (HCC-15; first compound 1 µM) was 0.735 and the relative viability (COR-L23; first compound 0.01 µM) was 0.394. The relative viability (COR-L23; first compound 0.03162 µM) was 0.352, the relative viability (COR-L23; first compound 0.1 µM) was 0.327 and the relative viability (COR-L23; first compound 0.3162 µM) was 0.318. For the same compound, the relative viability (COR-L23; first compound 1 µM) was 0.37, the relative viability (HOP-62; first compound 0.01 µM) was 0.441 and the relative viability (HOP-62; first compound 0.03162 µM) was 0.58. It also gave a relative viability (HOP-62; first compound 0.1 µM) of 0.409, a relative viability (HOP-62; first compound 0.3162 µM) of 0.523 and a relative viability (HOP-62; first compound 1 µM) of 0.377. The relative viability (NCI-H1395; first compound 0.03162 µM) was 0.457, the relative viability (NCI-H1395; first compound 0.1 µM) was 0.445 and the relative viability (NCI-H1395; first compound 0.3162 µM) was 0.467. For the same compound, the relative viability (NCI-H1395; first compound 1 µM) was 0.498, the relative viability (HCC-366; first compound 0.01 µM) was 0.368 and the relative viability (HCC-366; first compound 0.03162 µM) was 0.319. It also gave a relative viability (HCC-366; first compound 0.1 µM) of 0.435, a relative viability (HCC-366; first compound 0.3162 µM) of 0.346 and a relative viability (HCC-366; first compound 1 µM) of 0.386. The relative viability (NCI-H2405; first compound 0.01 µM) was 0.952, the relative viability (NCI-H2405; first compound 0.03162 µM) was 0.912 and the relative viability (NCI-H2405; first compound 0.1 µM) was 0.945. For the same compound, the relative viability (NCI-H2405; first compound 0.3162 µM) was 0.832, the relative viability (NCI-H2405; first compound 1 µM) was 0.93 and the relative viability (NCI-H838; first compound 0.01 µM) was 0.753. The relative viability (NCI-H838; first compound 0.03162 µM) was 0.775, the relative viability (NCI-H838; first compound 0.1 µM) was 0.851 and the relative viability (NCI-H838; first compound 0.3162 µM) was 0.769. It also gave a relative viability (NCI-H838; first compound 1 µM) of 0.749, a relative viability (EMC-BAC-2; first compound 0.01 µM) of 0.486 and a relative viability (EMC-BAC-2; first compound 0.03162 µM) of 0.507. For the same compound, the relative viability (EMC-BAC-2; first compound 0.1 µM) was 0.548, the relative viability (EMC-BAC-2; first compound 0.3162 µM) was 0.412 and the relative viability (EMC-BAC-2; first compound 1 µM) was 0.489. For the same compound, the relative viability (ABC-1; first compound 0.01 µM) was 0.917, the relative viability (ABC-1; first compound 0.03162 µM) was 0.686 and the relative viability (ABC-1; first compound 0.1 µM) was 0.535. It also gave a relative viability (ABC-1; first compound 0.3162 µM) of 0.677, a relative viability (ABC-1; first compound 1 µM) of 0.726 and a relative viability (HCC-78; first compound 0.01 µM) of 0.783. The relative viability (HCC-78; first compound 0.03162 µM) was 0.687, the relative viability (HCC-78; first compound 0.1 µM) was 0.644 and the relative viability (HCC-78; first compound 0.3162 µM) was 0.835. The relative viability (HCC-78; first compound 1 µM) was 0.828, the relative viability (NCI-H358; first compound 0.01 µM) was 0.623 and the relative viability (NCI-H358; first compound 0.03162 µM) was 0.634. The relative viability (NCI-H358; first compound 0.1 µM) was 0.721, the relative viability (NCI-H358; first compound 0.3162 µM) was 0.553 and the relative viability (NCI-H358; first compound 1 µM) was 0.669.
